Experimental data reported in patent publication US10590140B2, “Tetrahydropyrimidodiazepine and dihydropyridodiazepine compounds for treating pain and pain related conditions” (ESTEVE PHARMACEUTICALS, S.A., priority 2016, dated 2020).
Where two headings read alike, the source gives them in different places.

Legend:
[1] = biological target: human norepinephrine transporter (NET) (Homo sapiens (Human), UniProt P23975); test: Binding assay to human norepinephrine transporter (NET) ([3H]-Nisoxetin); conditions: Table 2, dual compounds; [3H]-Nisoxetin binding
human norepinephrine transporter (NET), sequence (P23975 whole entry): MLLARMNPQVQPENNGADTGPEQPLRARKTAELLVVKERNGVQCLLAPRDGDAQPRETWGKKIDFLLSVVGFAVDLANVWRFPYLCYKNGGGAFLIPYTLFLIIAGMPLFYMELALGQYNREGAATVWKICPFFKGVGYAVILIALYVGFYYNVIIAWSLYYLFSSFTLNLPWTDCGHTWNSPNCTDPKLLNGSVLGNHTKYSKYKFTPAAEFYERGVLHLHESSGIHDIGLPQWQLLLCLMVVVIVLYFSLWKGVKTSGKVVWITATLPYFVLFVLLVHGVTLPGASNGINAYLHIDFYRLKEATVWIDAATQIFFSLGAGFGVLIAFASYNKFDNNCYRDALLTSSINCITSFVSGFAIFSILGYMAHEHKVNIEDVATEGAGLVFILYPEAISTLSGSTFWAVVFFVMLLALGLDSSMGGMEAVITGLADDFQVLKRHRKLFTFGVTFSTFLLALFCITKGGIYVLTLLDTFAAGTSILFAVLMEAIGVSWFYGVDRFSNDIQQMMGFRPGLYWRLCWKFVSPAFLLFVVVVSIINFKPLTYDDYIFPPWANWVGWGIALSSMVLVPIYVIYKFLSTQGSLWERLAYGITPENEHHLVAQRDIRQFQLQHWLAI
Experimental: Binding Assay to Human Norepinephrine Transporter (NET).
Human norepinephrine transporter (NET) enriched membranes (5 μg) were incubated with 5 nM of radiolabeled [3H]-Nisoxetin in assay buffer containing 50 mM Tris-HCl, 120 mM NaCl, 5 mM KCl, pH 7.4.
NSB (non specific binding) was measured by adding 1 μM. After 60 min incubation at 4° C., binding reaction was terminated by filtering through Multiscreen GF/C (Millipore) presoaked in 0.5% polyethyleneimine in Vacuum Manifold Station, followed by 3 washes with ice-cold filtration buffer containing 50 mM Tris-HCl, 0.9% NaCl, pH 7.4.
Filter plates were dried at 60° C. for 1 hour and 30 μl of scintillation cocktail were added to each well before radioactivity reading.

[2] = biological target: human α2δ-1 subunit of Cav2.2 calcium channel (Homo sapiens (Human), UniProt P54289); test: Binding assay to human α2δ-1 subunit of Cav2.2 calcium channel ([3H]-Gabapentin); conditions: read-out: Ki (nM) α2δ-1
human α2δ-1 subunit of Cav2.2 calcium channel, sequence (P54289 25-1103): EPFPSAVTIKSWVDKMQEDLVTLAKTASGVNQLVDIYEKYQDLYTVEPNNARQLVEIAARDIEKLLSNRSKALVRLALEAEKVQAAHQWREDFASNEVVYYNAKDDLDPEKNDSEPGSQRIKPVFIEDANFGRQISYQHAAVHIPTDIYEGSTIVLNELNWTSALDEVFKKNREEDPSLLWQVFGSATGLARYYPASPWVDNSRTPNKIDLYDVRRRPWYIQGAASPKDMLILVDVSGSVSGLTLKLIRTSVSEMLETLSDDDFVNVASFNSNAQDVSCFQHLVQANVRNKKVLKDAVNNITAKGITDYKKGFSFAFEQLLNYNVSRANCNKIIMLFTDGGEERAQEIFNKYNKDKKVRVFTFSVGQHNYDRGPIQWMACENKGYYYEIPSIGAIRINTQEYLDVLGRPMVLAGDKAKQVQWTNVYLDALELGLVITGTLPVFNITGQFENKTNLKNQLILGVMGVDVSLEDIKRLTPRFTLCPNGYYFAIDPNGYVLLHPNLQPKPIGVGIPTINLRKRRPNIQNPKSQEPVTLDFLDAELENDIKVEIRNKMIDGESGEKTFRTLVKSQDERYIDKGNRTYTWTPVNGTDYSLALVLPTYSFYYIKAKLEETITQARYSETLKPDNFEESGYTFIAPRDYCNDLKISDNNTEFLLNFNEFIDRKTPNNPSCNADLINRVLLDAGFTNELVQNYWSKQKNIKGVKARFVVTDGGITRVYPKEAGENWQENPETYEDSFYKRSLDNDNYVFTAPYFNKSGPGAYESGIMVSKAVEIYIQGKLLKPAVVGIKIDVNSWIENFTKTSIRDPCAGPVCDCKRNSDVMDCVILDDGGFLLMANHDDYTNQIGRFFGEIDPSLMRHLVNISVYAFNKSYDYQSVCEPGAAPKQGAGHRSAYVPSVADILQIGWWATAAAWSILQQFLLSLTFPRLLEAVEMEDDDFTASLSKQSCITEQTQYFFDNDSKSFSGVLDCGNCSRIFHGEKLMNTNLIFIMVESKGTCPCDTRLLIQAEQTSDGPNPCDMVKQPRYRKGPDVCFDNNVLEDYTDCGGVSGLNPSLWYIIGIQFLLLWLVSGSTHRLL
Summary of the method: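 [3H]-gabapentin binding, 60 min at 27° C; nonspecific binding defined with 10 μM pregabalin. Terminated by filtration on PEI-presoaked GF/C filters, ice-cold 50 mM Tris-HCl pH 7.4 washes, then scintillation counting.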

[3] = Table 2, dual compounds, [3H]-Gabapentin binding
[4] = binding to α2δ-1, [3H]-Gabapentin

SMILES | Ki [1] | Ki [2, 3] | Ki [2, 4]
CCNc1ncc2c(n1)N(C)CCN(Cc1ccc(O[C@H](CCNC)c3ccccc3)cc1)C2=O [Example 415, (R)-2-(ethylamino)-9-methyl-6-(4-(3-(methylamino)-1-phenylpropoxy)benzyl)-6,7,8,9-tetrahydro-5H-pyrimido[4,5-e][1,4]diazepin-5-one] | 100 to 500 nM | 500 to 3000 nM | 500 to 3000 nM
CNCCC(Oc1cccc(N2CCN(C)c3cc(C)ncc3C2=O)c1)c1cccs1 (stereo not shown) [Example 307, 1,8-dimethyl-4-(3-(3-(methylamino)-1-(thiophen-2-yl)propoxy)phenyl)-1,2,3,4-tetrahydro-5H-pyrido[4,3-e][1,4]diazepin-5-one] | 100 to 500 nM | 100 to 500 nM | 100 to 500 nM
CCNc1ncc2c(n1)N(C)CCN(c1cccc(-n3cc(CN(C)CC4CC4)nn3)c1)C2=O [Example 246, 6-(3-(4-(((cyclopropylmethyl)(methyl)amino)methyl)-1H-1,2,3-triazol-1-yl)phenyl)-2-(ethylamino)-9-methyl-6,7,8,9-tetrahydro-5H-pyrimido[4,5-e][1,4]diazepin-5-one] | 100 to 500 nM | 100 to 500 nM | 100 to 500 nM
CNCC(OCc1ccc(N2CCN(C)c3nc(SC)ncc3C2=O)cc1)c1ccccc1 (stereo not shown) [Example 321, 9-methyl-6-(4-((2-(methylamino)-1-phenylethoxy)methyl)phenyl)-2-(methylthio)-6,7,8,9-tetrahydro-5H-pyrimido[4,5-e][1,4]diazepin-5-one] | < 100 nM | > 3000 nM | > 3000 nM
CNCC[C@H](Oc1ccc(CN2CCN(C)c3ncncc3C2=O)cc1)c1ccccc1 [Example 433, (S)-9-methyl-6-(4-(3-(methylamino)-1-phenylpropoxy)benzyl)-6,7,8,9-tetrahydro-5H-pyrimido[4,5-e][1,4]diazepin-5-one] | < 100 nM | 500 to 3000 nM | 500 to 3000 nM
CNCC[C@@H](Oc1cccc(N2CCN(C)c3nc(SC)ncc3C2=O)c1)c1ccccc1 [Example 152, (R)-9-methyl-6-(3-(3-(methylamino)-1-phenylpropoxy)phenyl)-2-(methylthio)-6,7,8,9-tetrahydro-5H-pyrimido[4,5-e][1,4]diazepin-5-one] | 100 to 500 nM | 500 to 3000 nM | 500 to 3000 nM
CCNc1ncc2c(n1)N(C)CCN(c1cccc(-n3cc(CN4CCC(c5ccccc5)CC4)nn3)c1)C2=O [Example 278, 2-(Ethylamino)-9-methyl-6-(3-(4-((4-phenylpiperidin-1-yl)methyl)-1H-1,2,3-triazol-1-yl)phenyl)-6,7,8,9-tetrahydro-5H-pyrimido[4,5-e][1,4]diazepin-5-one] | < 100 nM | 500 to 3000 nM | 500 to 3000 nM
CNCCC(OCc1cccc(CN2CCN(C)c3nc(C)ncc3C2=O)c1)c1ccccc1 (stereo not shown) [Example 423, 2,9-dimethyl-6-(3-((3-(methylamino)-1-phenylpropoxy)methyl)benzyl)-6,7,8,9-tetrahydro-5H-pyrimido[4,5-e][1,4]diazepin-5-one] | 100 to 500 nM | > 3000 nM | > 3000 nM
CNCC[C@@H](Oc1ccc(CN2CCN(C)c3ncncc3C2=O)cc1)c1ccccc1 [Example 434, (R)-9-methyl-6-(4-(3-(methylamino)-1-phenylpropoxy)benzyl)-6,7,8,9-tetrahydro-5H-pyrimido[4,5-e][1,4]diazepin-5-one] | 100 to 500 nM | > 3000 nM | > 3000 nM
CCNc1ncc2c(n1)N(C)CCN(c1cccc(OC(CCNC)c3cccnc3)c1)C2=O (stereo not shown) [Example 194, 2-(ethylamino)-9-methyl-6-(3-(3-(methylamino)-1-(pyridin-3-yl)propoxy)phenyl)-6,7,8,9-tetrahydro-5H-pyrimido[4,5-e][1,4]diazepin-5-one] | > 1000 nM | 500 to 3000 nM | 500 to 3000 nM
CNCCC(OCc1cccc(N2CCN(C)c3nc(NCc4ccccc4)ncc3C2=O)c1)c1ccccc1 (stereo not shown) [Example 335, 2-(benzylamino)-9-methyl-6-(3-((3-(methylamino)-1-phenylpropoxy)methyl)phenyl)-6,7,8,9-tetrahydro-5H-pyrimido[4,5-e][1,4]diazepin-5-one] | < 100 nM | 500 to 3000 nM | 500 to 3000 nM
CCNc1ncc2c(n1)N(C)CCN(c1cccc(C(C)(C)CNC)c1)C2=O [Example 173, 2-(ethylamino)-9-methyl-6-(3-(2-methyl-1-(methylamino)propan-2-yl)phenyl)-6,7,8,9-tetrahydro-5H-pyrimido[4,5-e][1,4]diazepin-5-one] | > 1000 nM | 500 to 3000 nM | 500 to 3000 nM
CCNc1ncc2c(n1)N(C)CCN(c1cccc(-n3cc(CN(C)CCc4ccccc4)cn3)c1)C2=O [Example 252, 2-(ethylamino)-9-methyl-6-(3-(4-((methyl(phenethyl)amino)methyl)-1H-pyrazol-1-yl)phenyl)-6,7,8,9-tetrahydro-5H-pyrimido[4,5-e][1,4]diazepin-5-one] | 100 to 500 nM | 500 to 3000 nM | 500 to 3000 nM
CNCC[C@@H](OCc1cccc(N2CCN(C)c3nc(SC)ncc3C2=O)c1)c1cccs1 [Example 209, (R)-9-methyl-6-(3-((3-(methylamino)-1-(thiophen-2-yl)propoxy)methyl)phenyl)-2-(methylthio)-6,7,8,9-tetrahydro-5H-pyrimido[4,5-e][1,4]diazepin-5-one] | 100 to 500 nM | 100 to 500 nM | 100 to 500 nM
CCNc1ncc2c(n1)N(C)CCN(Cc1ccc(COC(CCNC)c3ccccc3)cc1)C2=O (stereo not shown) [Example 405, 2-(ethylamino)-9-methyl-6-(4-((3-(methylamino)-1-phenylpropoxy)methyl)benzyl)-6,7,8,9-tetrahydro-5H-pyrimido[4,5-e][1,4]diazepin-5-one] | 100 to 500 nM | > 3000 nM | > 3000 nM
CNCCC(OCc1cccc(N2CCN(C)c3nc(C(F)(F)F)ncc3C2=O)c1)c1ccccc1 (stereo not shown) [Example 322, 9-methyl-6-(3-((3-(methylamino)-1-phenylpropoxy)methyl)phenyl)-2-(trifluoromethyl)-6,7,8,9-tetrahydro-5H-pyrimido[4,5-e][1,4]diazepin-5-one] | 100 to 500 nM | > 3000 nM | > 3000 nM
CCNc1ncc2c(n1)N(C)CCN(c1cccc(-n3cc(CN(C)Cc4ccccn4)nn3)c1)C2=O [Example 288, 2-(ethylamino)-9-methyl-6-(3-(4-((methyl(pyridin-2-ylmethyl)amino)methyl)-1H-1,2,3-triazol-1-yl)phenyl)-6,7,8,9-tetrahydro-5H-pyrimido[4,5-e][1,4]diazepin-5-one] | 100 to 500 nM | 500 to 3000 nM | 500 to 3000 nM
CCNc1ncc2c(n1)N(C)CCN(c1cccc(OCCN(C)CCc3ccccc3)c1)C2=O [Example 265, 2-(ethylamino)-9-methyl-6-(3-(2-(methyl(phenethyl)amino)ethoxy)phenyl)-6,7,8,9-tetrahydro-5H-pyrimido[4,5-e][1,4]diazepin-5-one] | 100 to 500 nM | 100 to 500 nM | 100 to 500 nM
CCNc1ncc2c(n1)N(C)CCN(c1cccc(CO[C@@H](CCN(C)C)c3ccccc3)c1)C2=O [Example 237, (S)-6-(3-((3-(dimethylamino)-1-phenylpropoxy)methyl)phenyl)-2-(ethylamino)-9-methyl-6,7,8,9-tetrahydro-5H-pyrimido[4,5-e][1,4]diazepin-5-one] | > 1000 nM | 500 to 3000 nM | 500 to 3000 nM
CCNc1ncc2c(n1)N(C)CCN(c1cccc(COC(CNC)c3ccccc3)c1)C2=O (stereo not shown) [Example 225, 2-(Ethylamino)-9-methyl-6-(3-((2-(methylamino)-1-phenylethoxy)methyl)phenyl)-6,7,8,9-tetrahydro-5H-pyrimido[4,5-e][1,4]diazepin-5-one] | > 1000 nM | 500 to 3000 nM | 500 to 3000 nM
CCNc1cc2c(cn1)C(=O)N(c1cccc(COC(CCNC)c3ccccc3)c1)CCN2C (stereo not shown) [Example 199, 8-(ethylamino)-1-methyl-4-(3-((3-(methylamino)-1-phenylpropoxy)methyl)phenyl)-1,2,3,4-tetrahydro-5H-pyrido[4,3-e][1,4]diazepin-5-one] | > 1000 nM | 500 to 3000 nM | 500 to 3000 nM
CCNc1ncc2c(n1)N(C)CCN(c1ccccc1COC(CNC)c1ccccc1)C2=O (stereo not shown) [Example 339, 2-(ethylamino)-9-methyl-6-(2-((2-(methylamino)-1-phenylethoxy)methyl)phenyl)-6,7,8,9-tetrahydro-5H-pyrimido[4,5-e][1,4]diazepin-5-one] |  |  | > 3000 nM
CNCCC(Oc1ccc(CN2CCN(C)c3nc(OC)ncc3C2=O)cc1)c1nccs1 (stereo not shown) [Example 390, 2-methoxy-9-methyl-6-(4-(3-(methylamino)-1-(thiazol-2-yl)propoxy)benzyl)-6,7,8,9-tetrahydro-5H-pyrimido[4,5-e][1,4]diazepin-5-one] |  |  | 100 to 500 nM
CCNc1ncc2c(n1)N(C)CCN(c1cccc(OCCCN(C)CCc3ccccc3)c1)C2=O [Example 258, 2-(ethylamino)-9-methyl-6-(3-(3-(methyl(phenethyl)amino)propoxy)phenyl)-6,7,8,9-tetrahydro-5H-pyrimido[4,5-e][1,4]diazepin-5-one] |  |  | 500 to 3000 nM
CCNc1ncc2c(n1)N(C)CCN(c1cccc(CCNC)c1)C2=O [Example 172, 2-(ethylamino)-9-methyl-6-(3-(2-(methylamino)ethyl)phenyl)-6,7,8,9-tetrahydro-5H-pyrimido[4,5-e][1,4]diazepin-5-one] |  |  | 100 to 500 nM
